Patent publication US20250268261A1, “METHODS FOR THE CONTROL OF POA ANNUA IN WARM SEASON TURFGRASS USING THIENCARBAZONE-METHYL” (Discovery Purchaser Corporation, priority 2024, published 2025)

Tests used:
Type in all cases: in vivo
Poa annua [1] = assay: Single application to warm season turfgrass according to the disclosed methods (summary statement); details: early post-emergence, for at least 120 days following application
Poa annua [2] = assay: Field trial, bermudagrass stands infested with Poa annua, Blacksburg, Virginia, autumn 2022; details: FIG. 10
Text: (§1) As used herein, the term “Abbott's percentage reduction,” in all of its forms, refers to a measure of percentage control relative to the population in an untreated control stand of turfgrass. Rather than representing a simple percentage control on a per treatment basis, the Abbott's percentage reduction measure accounts for naturally occurring shifts in the target population and limits rating bias over time. Abbott's percentage reduction may be represented by the following
Stands of bermudagrass infested with Poa annua were treated with thiencarbazone-methyl (TCM) at different stages of Poa annua development and under different climatological conditions in a set of trials conducted during the autumn of 2022 in Blacksburg, Virginia. Stands of bermudagrass containing Poa annua in a pre-emergent growth phase were treated with thiencarbazone-methyl (TCM) on September 14th. Stands of bermudagrass containing Poa annua in an early post-emergent growth state characterized by having two or fewer tillers were treated with thiencarbazone-methyl (TCM) on October 5th. Stands of bermudagrass containing Poa annua in a late post-emergent growth state characterized by having more than two tillers were treated with thiencarbazone-methyl (TCM) on November 9th. The Blacksburg trial data is shown in FIG. 10 while FIG. 12 provides the corresponding environmental data for Blacksburg during the trials. The Days After Application “DAA” shown in FIG. 10 refers to the days after thiencarbazone-methyl (TCM) was applied to the stands of bermudagrass containing Poa annua in a pre-emergent growth phase on Sep. 14, 2022. The horizontal line in FIG. 12 represents the temperature (66 degrees Fahrenheit) at which peak Poa annua germination has been observed. […] However, treatment of bermudagrass stands containing Poa annua at a later growth stage fell well below the minimum commercially acceptable 80% Abbott control threshold effectiveness.

Poa annua [3] = assay: Field trial, bermudagrass stands infested with Poa annua, Clayton, North Carolina, autumn 2022; details: FIG. 11
Text: as §1
Stands of bermudagrass infested with Poa annua were treated with thiencarbazone-methyl (TCM) at different stages of Poa annua development and under different climatological conditions in a set of trials conducted during the autumn of 2022 in Clayton, North Carolina. Stands of bermudagrass containing Poa annua in a pre-emergent growth phase were treated with thiencarbazone-methyl (TCM) on September 23rd. Stands of bermudagrass containing Poa annua in an early post-emergent growth state characterized by having two or fewer tillers were treated with thiencarbazone-methyl (TCM) on November 21st. Stands of bermudagrass containing Po annua in a late post-emergent growth state characterized by having more than two tillers were treated with thiencarbazone-methyl (TCM) on December 8th. The Clayton trial data is shown in FIG. 11 while FIG. 13 provides the corresponding environmental data for Clayton during the trials. […]

COC(=O)c1csc(C)c1S(=O)(=O)NC(=O)n1nc(OC)n(C)c1=O [thiencarbazone-methyl, methyl 4-[(3-methoxy-4-methyl-5-oxo-1,2,4-triazole-1-carbonyl)sulfamoyl]-5-methylthiophene-3-carboxylate]
reduction in Poa annua population (Poa annua [1]): ≥ 80%
Abbott control threshold effectiveness (Poa annua [2]; 15 g/ha, early post-emergent growth phase (two or fewer tillers, treated October 5), 77, 91 and 148 days after the pre-emergence treatment application): ≥ 80%
Abbott control threshold effectiveness (Poa annua [2]; 30 g/ha, early post-emergent growth phase (two or fewer tillers, treated October 5), 77, 91 and 148 days after the pre-emergence treatment application): ≥ 80%
Abbott control threshold effectiveness (Poa annua [2]; Poa annua at a later growth stage (more than two tillers, treated November 9)): < 80%
Abbott control threshold effectiveness (Poa annua [3]; 30 g/ha, early post-emergent growth phase (two or fewer tillers, treated November 21), 117 days after the pre-emergence treatment application): ≥ 80%
Abbott control threshold effectiveness (Poa annua [3]; Poa annua at a later growth stage (more than two tillers, treated December 8)): < 80%
